Reference: the NIST ThermoML archive (doi:10.1021/je1007197)
“And” between values parts separate entries of the source, which are not always exact repeats. Identical values can stand only once. ± gives the expanded uncertainty stated by the source.

Conditions: Liquid, Hot wire method

CCCCOCCO [2-butoxyethan-1-ol]
thermal conductivity
Conditions | 304.15 K | 321.15 K | 338.15 K
100 kPa | 0.1529 ± 0.001 W/m/K and 0.1533 ± 0.001 W/m/K | 0.1497 ± 0.0009 W/m/K and 0.1496 ± 0.0009 W/m/K | 0.1461 ± 0.0009 W/m/K and 0.1463 ± 0.0009 W/m/K
16400 kPa | 0.1579 ± 0.001 W/m/K | 0.1548 ± 0.001 W/m/K | 0.1518 ± 0.001 W/m/K
27300 kPa | 0.1612 ± 0.001 W/m/K | 0.1585 ± 0.001 W/m/K | 0.1555 ± 0.001 W/m/K
41800 kPa | 0.1646 ± 0.001 W/m/K | 0.1628 ± 0.001 W/m/K | 0.1601 ± 0.001 W/m/K
56100 kPa | 0.1689 ± 0.0011 W/m/K | 0.1665 ± 0.001 W/m/K | 0.164 ± 0.001 W/m/K
70200 kPa | 0.1722 ± 0.0011 W/m/K | 0.1701 ± 0.0011 W/m/K | 0.1677 ± 0.001 W/m/K
79000 kPa | 0.174 ± 0.0011 W/m/K | – | –
83500 kPa | 0.1749 ± 0.0011 W/m/K | – | –
84200 kPa | – | 0.1739 ± 0.0011 W/m/K | 0.1717 ± 0.0011 W/m/K
98200 kPa | 0.1785 ± 0.0011 W/m/K | 0.177 ± 0.0011 W/m/K | 0.1751 ± 0.0011 W/m/K
108700 kPa | – | – | 0.1775 ± 0.0011 W/m/K
112200 kPa | 0.182 ± 0.0011 W/m/K | 0.18 ± 0.0011 W/m/K | –
123400 kPa | – | – | 0.1807 ± 0.0011 W/m/K
124100 kPa | 0.1836 ± 0.0011 W/m/K | – | –
126200 kPa | – | 0.183 ± 0.0011 W/m/K | –
134900 kPa | – | 0.1851 ± 0.0011 W/m/K | –
140100 kPa | 0.187 ± 0.0012 W/m/K | – | 0.1844 ± 0.0011 W/m/K
149200 kPa | 0.1885 ± 0.0012 W/m/K | – | –
150600 kPa | – | 0.1879 ± 0.0012 W/m/K | –
